These results are taken from patent publication US9448243B2, “Weak affinity chromatography” (priority 2013, dated 2016).

Experiment [1] addresses human serum albumin (HSA) (Homo sapiens, UniProt P02768). In words: Weak affinity chromatography of steroids on HSA column. It is filed as binding. To be noted: for Kd: Column D, HSA 99% purity column; for k′ (capacity factor), Column D: HSA 99% purity, 118 mg/g silica, 20° C. How it is done: (§1) Four columns were prepared, a blank diol-silica column (column A) having no binding ligands and 3 columns (columns B, C, D) loaded with albumin as the binding ligand. Column B was a silica packed column (7 μm, 300 Å porosity) loaded with 96% purity bovine serum albumin (BSA) at a concentration of 66 mg of BSA per gram of silica. Column C was a silica packed column (7 μm, 300 Å porosity) loaded with 99% purity bovine serum albumin (BSA) at a concentration of 77 mg of BSA per gram of silica. Column D was a silica packed column (7 μm, 300 Å porosity) loaded with 99% purity human serum albumin (HSA) at a concentration of 118 mg of HSA per gram of silica. All four column dimensions were 2.1×50 mm stainless steel. Immobilization of the ligands was performed batchwise with periodate activation. 0.5 g of diol-silica was used with 5 ml of H2O added. The silica was sonicated for 2 minutes, and 0.5 g of periodic acid was added to convert the diol groups to aldehyde-groups. After 2 hours of mixing, the aldehyde-silica was washed with 100 mM phosphate, pH 7.0. 5 ml of the respective ligand in 100 mM phosphate buffer, pH 7.0, was prepared. Ligand concentration was 10 mg/ml. 250 μl NaCNBH3, concentration of 0.1 mg/ml, was added. Coupling time was 40 hours at room temperature (22° C.) on mixing table.
(§2) The system comprised the columns used in an Agilent 1200-LC-MS system. The steroids were all dissolved in ethanol at a concentration of 0.05 μg/μl. 2 μl samples were run in duplicate. Solvent buffers used included phosphate buffered saline (PBS) at pH 7.4 and 5 mM ammonium-acetate (Am-Ac) salt, pH 6.9. Column temperature was 20° C. with a flow rate of 0.400 ml/min. Detection included the use of UV diode-array detector (DAD) at 237 nm.
(§3) The columns were tested with the PBS buffer and the Am-Ac listed above. The capacity factor (k′) and dissociation constant (Kd) were determined as set forth in U.S. Pat. No. 4,879,247 issued on Nov. 7, 1989 to Sten Ohlson, which is hereby incorporated by reference in its entirety.

Experiment [2] concerns the target bovine serum albumin (BSA) (Bos taurus, UniProt P02769). The experiment can be described thus: Weak affinity chromatography of steroids on BSA columns (columns B, C). It is filed as binding. To be noted: for k′ (capacity factor), Column B: 66 mg/g silica; for k′ (capacity factor), Column B / k′ (capacity factor), Column C: 20° C.; for k′ (capacity factor), Column C: 77 mg/g silica. The method, then:
as §1, §2, §3

Setting [3] is: Column B, 5 mM Am-Ac buffer pH 6.9, BSA 96% purity.
The mark [4] stands for this setting: Column B, PBS buffer pH 7.4, BSA 96% purity.
Where [5] appears, read: Column C, 5 mM Am-Ac buffer pH 6.9, BSA 99% purity.
The mark [6] stands for this setting: Column C, PBS buffer pH 7.4, BSA 99% purity.

For orientation: Kd means the constant that tells how readily two partners part at equilibrium.

bovine serum albumin (BSA), sequence (P02769 25-607): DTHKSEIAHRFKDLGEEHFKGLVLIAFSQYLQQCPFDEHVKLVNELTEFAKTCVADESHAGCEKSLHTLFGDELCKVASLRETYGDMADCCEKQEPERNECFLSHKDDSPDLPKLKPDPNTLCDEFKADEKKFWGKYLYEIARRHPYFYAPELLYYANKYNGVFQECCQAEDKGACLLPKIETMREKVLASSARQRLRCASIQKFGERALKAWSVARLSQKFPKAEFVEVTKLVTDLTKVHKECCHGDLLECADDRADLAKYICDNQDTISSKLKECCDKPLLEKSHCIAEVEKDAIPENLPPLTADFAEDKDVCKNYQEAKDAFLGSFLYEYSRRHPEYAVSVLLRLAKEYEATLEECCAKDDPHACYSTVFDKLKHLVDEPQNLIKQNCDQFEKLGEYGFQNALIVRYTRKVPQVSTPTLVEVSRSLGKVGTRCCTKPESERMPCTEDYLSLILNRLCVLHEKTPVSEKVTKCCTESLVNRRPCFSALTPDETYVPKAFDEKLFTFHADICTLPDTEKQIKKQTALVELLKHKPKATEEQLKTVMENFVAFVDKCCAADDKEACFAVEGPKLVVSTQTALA
human serum albumin (HSA), sequence (P02768 25-609): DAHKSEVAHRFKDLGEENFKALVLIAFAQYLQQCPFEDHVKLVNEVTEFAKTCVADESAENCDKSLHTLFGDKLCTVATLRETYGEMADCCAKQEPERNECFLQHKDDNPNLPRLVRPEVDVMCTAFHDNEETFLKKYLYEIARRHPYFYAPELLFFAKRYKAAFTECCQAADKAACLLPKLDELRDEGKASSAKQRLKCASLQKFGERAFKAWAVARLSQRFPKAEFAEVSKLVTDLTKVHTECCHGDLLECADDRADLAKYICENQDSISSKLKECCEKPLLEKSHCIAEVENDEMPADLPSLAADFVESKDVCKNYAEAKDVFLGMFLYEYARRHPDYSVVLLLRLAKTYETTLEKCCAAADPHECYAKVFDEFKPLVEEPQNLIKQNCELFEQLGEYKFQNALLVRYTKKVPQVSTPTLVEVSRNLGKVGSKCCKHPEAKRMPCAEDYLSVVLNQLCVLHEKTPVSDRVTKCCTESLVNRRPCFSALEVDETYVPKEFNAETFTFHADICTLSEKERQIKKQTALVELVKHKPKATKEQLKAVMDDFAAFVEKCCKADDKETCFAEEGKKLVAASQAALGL

Consider `C[C@]12C=CC(=O)C=C1CC[C@@H]1[C@@H]2[C@@H](O)C[C@@]2(C)[C@H]1CC[C@]2(O)C(=O)CO` [Prednisolone, prednisolone], for which the Kd in experiment [1] (5 mM Am-Ac buffer pH 6.9) amounted to 596 µM; in experiment [1] (PBS buffer pH 7.4) it was 602 µM; in experiment [2] (setting [3]), 257 µM; in experiment [2] (setting [4]), 230 µM; in experiment [2] (setting [5]), 227 µM; in experiment [2] (setting [6]) it was 216 µM.

As for `C[C@]12C=CC(=O)C=C1CC[C@@H]1[C@@H]2C(=O)C[C@@]2(C)[C@H]1CC[C@]2(O)C(=O)CO` [Prednisone, prednisone], the “k′ (capacity factor), Column D” value is on record as 1.78 in experiment [1] (5 mM Am-Ac buffer pH 6.9) and 1.74 in experiment [1] (PBS buffer pH 7.4). The dissociation constant (Kd) in experiment [1] (5 mM Am-Ac buffer pH 6.9) is 523 µM; in experiment [1] (PBS buffer pH 7.4) it was 516 µM; in experiment [2] (setting [3]) it was 288 µM; in experiment [2] (setting [4]), 274 µM; in experiment [2] (setting [5]), 260 µM; in experiment [2] (setting [6]) it was 250 µM. The “k′ (capacity factor), Column B” value was 1.01 in experiment [2] (5 mM Am-Ac buffer pH 6.9, BSA 96% purity) and 1.07 in experiment [2] (PBS buffer pH 7.4, BSA 96% purity). Besides, the “k′ (capacity factor), Column C” value came to 1.17 in experiment [2] (5 mM Am-Ac buffer pH 6.9, BSA 99% purity) and 1.23 in experiment [2] (PBS buffer pH 7.4, BSA 99% purity).
